This passage reports IC50 results from ChEMBL document CHEMBL5727423, “Methods using HDAC11 inhibitors” (2019).

The target of this assay is T1, Histone deacetylase 11 (Homo sapiens, UniProt Q96DB2).
T1 sequence (Q96DB2 whole entry): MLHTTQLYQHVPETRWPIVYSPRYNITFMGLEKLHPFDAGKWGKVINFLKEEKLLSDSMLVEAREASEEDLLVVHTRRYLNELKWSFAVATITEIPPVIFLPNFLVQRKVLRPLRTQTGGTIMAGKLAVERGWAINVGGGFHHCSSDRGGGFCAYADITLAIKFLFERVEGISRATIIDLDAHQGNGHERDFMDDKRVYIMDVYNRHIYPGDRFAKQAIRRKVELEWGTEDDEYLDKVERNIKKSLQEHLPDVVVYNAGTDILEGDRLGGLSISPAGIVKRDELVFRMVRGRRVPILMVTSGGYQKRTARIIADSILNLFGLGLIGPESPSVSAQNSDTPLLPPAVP
Nature of the assay: HDAC Inhibition Assays: This example describes in vitro inhibition properties of exemplary HDAC11 inhibitors for various HDACs. HDAC inhibition assays were performed using an electrophoretic mobility shift assay at Nanosyn, Inc. (Santa Clara, Calif.). Full length human recombinant HDAC proteins were expressed in the baculoviral system and purified by affinity chromatography. A human recombinant HDAC3 was co-expressed with nuclear receptor corepressor (Ncor2). The following peptide substrates were used: FAM-RHKK(Ac)-NH2 for HDAC3, HDAC6 and HDAC8; FITC-H3K27(Ac)-NH2 for HDAC1, HDAC2 and HDAC10; FAM-RHKK(tri-fluor-Ac)-NH2 for HDAC4, HDAC5, HDAC7, HDAC9 and HDAC11. Reactions consisting of compound, enzyme, and substrate were performed in reaction buffer (comprised of 100 mM HEPES, pH7.5, 25 mM KCl, 0.1% bovine serum albumin, 0.01% Triton X-100) at 25° C. and quenched by the addition of termination buffer (100 mM HEPES, pH7.5, 0.01% Triton X-100, 0.05% SDS). The fluorescence intensity of the electrophoretically separated de-acetylated product and substrate peptide were measured and analyzed using the LabChip® 3000 microfluidic electrophoresis instrument (Perkin Elmer/Caliper Life Sciences). The IC50 values of inhibitors were determined by fitting the %-inhibition curves with 4 parameter dose-response model using XLfit 4 software (IDBS).

Bounds are passed on as bounds.

Consider `N#Cc1cc2nc(Nc3cccc(C(=O)NO)c3)[nH]c2cc1C(F)(F)F`, for which the concentration for half-maximal inhibition (IC50) is < 0.5 µM.
